Legend:
Format in all cases: biochemical, Variovorax paradoxus
[1] = system: D-amidase; assay: Enzyme test for amino acid amides and α-hydroxycarboxylic acid amides (HPLC or NH4+ determination); settings: for Rel. activity with respect to D and L: activity for the lower enantiomer set at 1; for Activity with respect to Tle-NH2 / Specific activity: substrate 40 mM; for Activity with respect to Tle-NH2: DL-Tle-NH2 = 1; for Specific activity: partly purified D-amidase after the 2nd chromatography step (0.56 U/mg), Pro-, Lac-, MHA-NH2 by NH4+ determination
Protocol: For prolinamide, and the α-hydroxycarboxylic acid amides lactic acid amide (Lac-NH2) and 2-hydroxy-4-methylmercaptobutyric acid amid (MHA-NH2), the methionine-analogous α-hydroxycarboxylic acid amide, determination of the product with the previous HPLC analysis is not possible. For these substrates, the activity was determined with the aid of NH4^+ determination. […] All the substrates were employed in the enzyme test at 40 mM. In the 4th column, for further comparison the activity for the lower enantiomer has been set at 1 and a relative activity for the preferred enantiomer has been calculated therefrom.
(§1) In the conversion of tert-leucinamide (gen. acid amides) by the D-amidase, the formation of ammonia or ammonium ions and tert-leucine (gen. acid) in equimolar amounts occurs. […] The change in concentration of the components participating can be measured in an enzyme test, which comprises incubation of the following test batch for 10-60 minutes at 30° C.
(§2) The enzyme test was started by addition of the substrate and the reaction was stopped by heating at 95° C. for three minutes. The analysis of the reaction products was carried out for ammonium ions by enzymatic determination of ammonium by glutamate dehydrogenase (Bergmeyer, H.,U., and Beutler, H.-O. (1985) Ammonia. In: Methods of Enzymatic Analysis. VCH-Verlag, 3rd edition, vol. 8: 454-461, Weinheim) and for D- and L-tert-leucine by means of HPLC (Bruckner, H., Wittner R., and Godel H., (1991) Fully automated high-performance liquid chromatographic separation of DL-amino acids derivatized with o-phthaldialdehyde together with N-isopropyl-cysteine. Application to food samples. Anal. Biochem. 144(1): 204-206). Batches to which no substrate were added served as controls.
(§3) The separation and quantitative determination of the enantiomers D- and L-tert-leucine were carried out by a “chiral derivatization” on the basis of o-phthaldialdehyde (OPA)/N-isobutyryl-L-cysteine or N-isobutyryl-D-cysteine (Brückner, H.; Wittner R. and Godel H. (1991), Fully automated high-performance liquid chromatographic separation of DL-amino acids derivatized with o-Phthaldialdehyde together with N-isopropyl-cysteine. Application to food samples. Anal. Biochem. 144, 204-206). The diastereomeric isoindole derivatives formed were separated on an RP-18 (reversed phase) column and detected by fluorescence. A two-buffer system of aqueous acetate buffer and an acetonitrile/water mixture was used as the mobile phase.

[2] = system: D-amidase; assay: Enzyme test for acid amides, activity by determination of ammonium ions with glutamate dehydrogenase; settings: for Activity with respect to Tle-NH2: DL-Tle-NH2 = 1; for Relative act.: partly purified D-amidase after the 2nd chromatography step (0.51 U/mg)
Protocol: The activity was measured by determination of the ammonium ions with glutamate dehydrogenase (Bergmeyer, H. U., and Beutler, H.-O. (1985), Ammonia. In: Methods of Enzymatic Analysis. VCH-Verlag, 3rd edition, vol. 8: 454-461, Weinheim). […] The substrates were employed in the enzyme test at 40 mM, except for succinic acid diamide and adipic acid diamide, each at 10 mM, and benzylamide at 20 mM. Since the activities were determined only at in each case one substrate concentration, relative activities are stated.
as §1, §2
The enzyme glutamate dehydrogenase (GluDH; E.C.1.4.1.3) converts 2-oxoglutarate into L-glutamate, ammonium ions being consumed and NADH being oxidized to NAD+(Bergmeyer, H.,U. and Beutler, H.-O. (1985), Ammonia. In: Methods of Enzymatic Analysis. VCH-Verlag, 3rd edition, vol. 8: 454-461, Weinheim). The amount of NADH consumed during the reaction is equivalent to the amount of ammonium ions. The change in the concentration of NADH is the measurement parameter and can be determined spectrophotometrically at a wavelength of 340 nm.
The test components were pipetted into cells of plastic (1.5 ml semimicro disposable cells, Brand) and mixed and the extinction at 340 nm was determined after 5 min. 10 μl GluDH were then added, and after the reaction had gone to completion, as a rule after 30 min, the extinction was measured again.

[3] = system: D-amidase; assay: Kinetic cleavage of racemic amino acid amides: enantioselectivity as a function of the conversion
Protocol: To evaluate the suitability for kinetic cleavage of racemic DL-Tle-NH2, the enantioselectivity was determined as a function of the conversion.
DL-Valin-, DL-leucin- and DL-phenylalaninamide were alos tested in this respect. For this, the enantioselectivity was determined as function of the conversion with partly purified enzyme from Variovorax paradoxus 19-3 after the 1st chromatography step.
as §3

[4] = conversion 4%, partly purified enzyme after the 1st chromatography step
[5] = conversion 51%, partly purified enzyme after the 1st chromatography step

Row | Molecule | Rel. activity with respect to D and L [1] | Activity with respect to Tle-NH2 [1] | Specific activity [1] | other results
1 | NC(=O)[C@H](N)Cc1ccccc1 [D-Phe-NH2] | 4.6 | 890 | 500 U/mg | 
2 | CC(N)=O [Acetamide] |  |  |  | Activity with respect to Tle-NH2 ([2]; substrate 40 mM): 4.0; Relative act. ([2]; substrate 40 mM): 2.1 U/mg
3 | N[C@H](Cc1ccccc1)C(=O)O [D-Phe] |  |  |  | enantioselectivity ([3]; range from 40 to 50% conversion, partly purified enzyme after the 1st chromatography step): ~55%
4 | NC(=O)CCC(N)=O [Succinic acid diamide] |  |  |  | Activity with respect to Tle-NH2 ([2]; substrate 10 mM): 2.1; Relative act. ([2]; substrate 10 mM): 1.1 U/mg
5 | NC(=O)C(N)Cc1ccccc1 (racemic) [DL-Phe-NH2, DL-phenylalaninamide] |  |  |  | E value ([3]; conversion 4%): 5.6; ee D-Val [3, 4]: 68.8%; E value ([3]; conversion 14%): 5.2; ee D-Val ([3]; conversion 14%, partly purified enzyme after the 1st chromatography step): 65.1%; E value ([3]; conversion 26%): 5.1; ee D-Val ([3]; conversion 26%, partly purified enzyme after the 1st chromatography step): 61.5%; E value ([3]; conversion 36%): 5.2; ee D-Val ([3]; conversion 36%, partly purified enzyme after the 1st chromatography step): 58.3%; E value ([3]; conversion 51%): 5.1; ee D-Val [3, 5]: 50.9%; E value (average) ([3]; racemic amide, calculated from Table 3): 5
6 | Benzylamide |  |  |  | Activity with respect to Tle-NH2 ([2]; substrate 20 mM): 5.2; Relative act. ([2]; substrate 20 mM): 2.6 U/mg
7 | CC(C)C(N)=O [Isobutyramide] |  |  |  | Activity with respect to Tle-NH2 ([2]; substrate 40 mM): 33; Relative act. ([2]; substrate 40 mM): 15 U/mg
8 | NC(=O)CCCCC(N)=O [Adipic acid diamide] |  |  |  | Activity with respect to Tle-NH2 ([2]; substrate 10 mM): 14; Relative act. ([2]; substrate 10 mM): 7.0 U/mg
9 | CCC(N)=O [Propionamide] |  |  |  | Activity with respect to Tle-NH2 ([2]; substrate 40 mM): 26; Relative act. ([2]; substrate 40 mM): 12 U/mg
10 | CC(O)C(N)=O [D-Lac-NH2, lactic acid amide] | 1 | 59 | 29 U/mg | 
11 | NC(=O)c1cccnc1 [Nicotinamide] |  |  |  | Activity with respect to Tle-NH2 ([2]; substrate 40 mM): 19; Relative act. ([2]; substrate 40 mM): 8.5 U/mg
12 | CCCC(N)=O [Butyramide] |  |  |  | Activity with respect to Tle-NH2 ([2]; substrate 40 mM): 37; Relative act. ([2]; substrate 40 mM): 17 U/mg
13 | CC(C)C[C@@H](N)C(N)=O [D-Leu-NH2] | 15 | 400 | 220 U/mg | 
14 | C[C@@H](N)C(N)=O [D-Ala-NH2] | 3.0 | 44 | 23 U/mg | 
15 | CSCCC(N)C(N)=O (racemic) [DL-Met-NH2] | 2.7 | 230 | 130 U/mg | 
16 | NC(=O)[C@@H]1CCCN1 [D-Pro-NH2, prolinamide] | 1 | 24 | 12 U/mg | 
17 | CC(=O)CC(N)=O [Acetoacetamide] |  |  |  | Activity with respect to Tle-NH2 ([2]; substrate 40 mM): 130; Relative act. ([2]; substrate 40 mM): 58 U/mg
18 | CC(C)[C@@H](N)C(N)=O [D-Val-NH2] | 11 | 13 | 6.9 U/mg | 
19 | NC=O [Formamide] |  |  |  | Activity with respect to Tle-NH2 ([2]; substrate 40 mM): 0.13; Relative act. ([2]; substrate 40 mM): 0.061 U/mg
20 | CC(C)C[C@H](N)C(N)=O (racemic) [DL-Leu-NH2] |  |  |  | E value ([3]; conversion 4%): 470; ee D-Val [3, 4]: 99.6%; E value ([3]; conversion 18%): 130; ee D-Val ([3]; conversion 18%, partly purified enzyme after the 1st chromatography step): 98.1%; E value ([3]; conversion 33%): 120; ee D-Val ([3]; conversion 33%, partly purified enzyme after the 1st chromatography step): 97.3%; E value ([3]; conversion 40%): 114; ee D-Val ([3]; conversion 40%, partly purified enzyme after the 1st chromatography step): 96.7%; E value ([3]; conversion 48%): 53; ee D-Val ([3]; conversion 48%, partly purified enzyme after the 1st chromatography step): 90.8%; E value ([3]; conversion 51%): 41; ee D-Val [3, 5]: 86.7%
21 | CSCCC(O)C(N)=O (racemic) [DL-MHA-NH2, 2-hydroxy-4-methylmercaptobutyric acid amid] |  | 150 | 82 U/mg | 
22 | CCCCC(N)=O [Valeric acid amide] |  |  |  | Activity with respect to Tle-NH2 ([2]; substrate 40 mM): 36; Relative act. ([2]; substrate 40 mM): 16 U/mg
23 | NC(=O)CC(N)=O [Malonic acid diamide] |  |  |  | Activity with respect to Tle-NH2 ([2]; substrate 40 mM): 2.9; Relative act. ([2]; substrate 40 mM): 1.5 U/mg

Further lines, with some results ahead:

Row | Rel. activity with respect to D and L [1] | Activity with respect to Tle-NH2 [1] | Specific activity [1] | Molecule | other results
24 | 1 | 190 | 110 U/mg | NC(=O)[C@@H](N)Cc1ccccc1 [L-Phe-NH2] | 
25 | 1.1 | 66 | 33 U/mg | CC(O)C(N)=O [L-Lac-NH2, lactic acid amide] | 
26 | 2.3 | 56 | 28 U/mg | NC(=O)[C@@H]1CCCN1 [L-Pro-NH2, prolinamide] | 
27 | 1 | 26 | 15 U/mg | CC(C)C[C@H](N)C(N)=O [L-Leu-NH2] | 
28 | 1 | 62 | 34 U/mg | NC(=O)[C@@H](N)Cc1c[nH]c2ccccc12 [L-Trp-NH2] | 
29 |  | 100 | 47 U/mg | NC(=O)[C@@H](N)Cc1ccc(O)cc1 [L-Tyr-NH2] | 
30 | 1 | 1.2 | 0.59 U/mg | CC(C)[C@H](N)C(N)=O [L-Val-NH2] | 
31 |  | 0.35 | 0.17 U/mg | CC[C@H](C)[C@H](N)C(N)=O [L-Ile-NH2] | 
32 | 1 | 86 | 48 U/mg | CSCC[C@H](N)C(N)=O [L-Met-NH2] | 
33 | 2.5 | 160 | 86 U/mg | NC(=O)C(N)Cc1c[nH]c2ccccc12 (racemic) [DL-Trp-NH2] | 
34 | 1 | 15 | 7.7 U/mg | C[C@H](N)C(N)=O [L-Ala-NH2] | 
